“And” between values parts separate entries of the source, which are not always exact repeats. Identical values can stand only once. Toxic doses and inconclusive results are not listed. No stated cut-off is given here; in the data, active means T/C of 150% or more; inactive means T/C below 125%.
System: L1210 leukemia ip in BDF1 mice, survival T/C
Assay: NCI In Vivo Anticancer Drug Screen. Data for tumor model L1210 Leukemia (intraperitoneal) in B6D2F1 (BDF1) mice
Settings: higher = longer survival
In short: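 Value reflects the ratio of survival in compound-treated mice to survival in vehicle-treated controls, with both groups carrying the same transplanted tumor.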

[1] = endpoint: mean survival time, dose: 100.0 mg/kg/injection, schedule: Q04DX003 (ip), vehicle: saline
[2] = endpoint: mean survival time, dose: 200.0 mg/kg/injection, schedule: Q04DX003 (ip), vehicle: saline
[3] = endpoint: mean survival time, dose: 400.0 mg/kg/injection, schedule: Q04DX003 (ip), vehicle: saline
[4] = endpoint: mean survival time, dose: 100.0 mg/kg/injection, schedule: Q01DX009 (ip), vehicle: saline with Tween-80
[5] = endpoint: mean survival time, dose: 200.0 mg/kg/injection, schedule: Q01DX009 (ip), vehicle: saline with Tween-80
[6] = endpoint: mean survival time, dose: 400.0 mg/kg/injection, schedule: Q01DX009 (ip), vehicle: saline with Tween-80
[7] = endpoint: mean survival time, dose: 100.0 mg/kg/injection, schedule: Q01DX001 (ip), vehicle: saline
[8] = endpoint: mean survival time, dose: 200.0 mg/kg/injection, schedule: Q01DX001 (ip), vehicle: saline
[9] = endpoint: mean survival time, dose: 100.0 mg/kg/injection, schedule: Q04DX003 (ip), vehicle: saline with Tween-80
[10] = endpoint: mean survival time, dose: 200.0 mg/kg/injection, schedule: Q04DX003 (ip), vehicle: saline with Tween-80

Measured: T/C

CCN1/C(=C/C(C)=C/c2sc3ccccc3[n+]2CC)Sc2ccccc21
inactive: endpoint: mean survival time, dose: 1.25 mg/kg/injection, schedule: Q01DX001 (ip), vehicle: other 111 % of control | endpoint: mean survival time, dose: 2.5 mg/kg/injection, schedule: Q01DX001 (ip), vehicle: other 97 % of control | endpoint: mean survival time, dose: 5.0 mg/kg/injection, schedule: Q01DX001 (ip), vehicle: other 103 % of control | endpoint: mean survival time, dose: 25.0 micrograms/kg/injection, schedule: Q01DX001 (ip), vehicle: saline 98 % of control | endpoint: mean survival time, dose: 25.0 micrograms/kg/injection, schedule: Q01DX009 (ip), vehicle: Klucel (hydroxypropylcellulose) (HPC) 100 % of control | endpoint: mean survival time, dose: 50.0 micrograms/kg/injection, schedule: Q01DX001 (ip), vehicle: saline 93 % of control | endpoint: mean survival time, dose: 50.0 micrograms/kg/injection, schedule: Q01DX009 (ip), vehicle: Klucel (hydroxypropylcellulose) (HPC) 101 % of control | endpoint: mean survival time, dose: 100.0 micrograms/kg/injection, schedule: Q01DX001 (ip), vehicle: saline 104 % of control | endpoint: mean survival time, dose: 100.0 micrograms/kg/injection, schedule: Q01DX009 (ip), vehicle: Klucel (hydroxypropylcellulose) (HPC) 108 % of control | endpoint: mean survival time, dose: 200.0 micrograms/kg/injection, schedule: Q01DX001 (ip), vehicle: saline 96 % of control | endpoint: mean survival time, dose: 200.0 micrograms/kg/injection, schedule: Q01DX009 (ip), vehicle: Klucel (hydroxypropylcellulose) (HPC) 104 % of control | endpoint: mean survival time, dose: 200.0 micrograms/kg/injection, schedule: Q01DX015 (ip), vehicle: saline 105 % of control | endpoint: mean survival time, dose: 400.0 micrograms/kg/injection, schedule: Q01DX009 (ip), vehicle: Klucel (hydroxypropylcellulose) (HPC) 97 % of control

CC1C(C)(C)P(=O)(NCCOP2(=O)C(C)(C)C(C)C2(C)C)C1(C)C (stereo unspecified)
inactive: [1] 100 % of control | [2] 92 % of control | [3] 96 % of control

CC(C)(CNCc1ccccc1)COS(=O)(=O)O
inactive: [1] 102 % of control | [2] 102 % of control | [3] 100 % of control

O=c1c2ccc(Cl)cc2[nH]c(=S)n1-c1ccc(Cl)cc1
inactive: [4] 89 % of control | [5] 89 % of control | [6] 87 % of control

CC[C@H]1CN2CCc3cc(OC)c(OC)cc3[C@@H]2C[C@@H]1C[C@H]1NCCc2c1[nH]c1ccc(O)cc21
inactive: endpoint: mean survival time, dose: 0.25 mg/kg/injection, schedule: Q01DX006 (ip), vehicle: saline 109 % of control | endpoint: mean survival time, dose: 0.5 mg/kg/injection, schedule: Q01DX006 (ip), vehicle: saline 117 % of control | endpoint: mean survival time, dose: 2.0 mg/kg/injection, schedule: Q01DX005 (ip), vehicle: saline 121 % of control | endpoint: mean survival time, dose: 4.0 mg/kg/injection, schedule: Q01DX005 (ip), vehicle: saline 108 % of control | endpoint: mean survival time, dose: 4.0 mg/kg/injection, schedule: Q04DX003 (ip), vehicle: saline 114 % of control | endpoint: mean survival time, dose: 125.0 micrograms/kg/injection, schedule: Q01DX009 (ip), vehicle: saline 108 % of control | endpoint: mean survival time, dose: 250.0 micrograms/kg/injection, schedule: Q01DX009 (ip), vehicle: saline 118 % of control | endpoint: mean survival time, dose: 500.0 micrograms/kg/injection, schedule: Q01DX009 (ip), vehicle: saline 120 % of control | endpoint: mean survival time, dose: 1000.0 micrograms/kg/injection, schedule: Q01DX009 (ip), vehicle: saline 109 % of control | endpoint: median survival time, dose: 1.0 mg/kg/injection, schedule: Q04DX003 (ip), vehicle: saline + alcohol 108 % of control | endpoint: median survival time, dose: 2.0 mg/kg/injection, schedule: Q04DX003 (ip), vehicle: saline + alcohol 118 % of control

Nc1c(Cl)c(Cl)cc(Cl)c1Cl
inactive: [4] 102 % of control | [5] 100 % of control | [6] 95 % of control

COC(=O)c1cc2c(cc1O)CCCC2
inactive: endpoint: mean survival time, dose: 50.0 mg/kg/injection, schedule: Q01DX001 (ip), vehicle: carboxymethylcellulose (CMC) 107 % of control | endpoint: mean survival time, dose: 100.0 mg/kg/injection, schedule: Q01DX001 (ip), vehicle: carboxymethylcellulose (CMC) 113 % of control | endpoint: mean survival time, dose: 200.0 mg/kg/injection, schedule: Q01DX001 (ip), vehicle: carboxymethylcellulose (CMC) 107 % of control | endpoint: mean survival time, dose: 400.0 mg/kg/injection, schedule: Q01DX001 (ip), vehicle: carboxymethylcellulose (CMC) 107 % of control

CC(=O)OC1CCC(NC(=O)N(CCCl)N=O)CC1 (stereo unspecified)
active: endpoint: mean survival time, dose: 15.0 mg/kg/injection, schedule: Q01DX001 (ip), vehicle: other 225 % of control | endpoint: mean survival time, dose: 30.0 mg/kg/injection, schedule: Q01DX001 (ip), vehicle: other 352 % of control | endpoint: mean survival time, dose: 62.0 mg/kg/injection, schedule: Q01DX001 (ip), vehicle: other 244 % of control

CCCCCCC(CCCCCC)CCCCCC
inactive: endpoint: mean survival time, dose: 100.0 mg/kg/injection, schedule: Q01DX001 (ip), vehicle: saline with Tween-80 99 % of control | endpoint: mean survival time, dose: 200.0 mg/kg/injection, schedule: Q01DX001 (ip), vehicle: saline with Tween-80 100 % of control | endpoint: mean survival time, dose: 400.0 mg/kg/injection, schedule: Q01DX001 (ip), vehicle: saline with Tween-80 99 % of control

COC1OC(CBr)C(OC(=O)c2ccccc2)C(OC(=O)c2ccccc2)C1OC(=O)c1ccccc1 (stereo unspecified)
inactive: endpoint: mean survival time, dose: 100.0 mg/kg/injection, schedule: Q04DX002 (ip), vehicle: Klucel (hydroxypropylcellulose) (HPC) 101 % of control | endpoint: mean survival time, dose: 200.0 mg/kg/injection, schedule: Q04DX002 (ip), vehicle: Klucel (hydroxypropylcellulose) (HPC) 96 % of control | endpoint: mean survival time, dose: 400.0 mg/kg/injection, schedule: Q04DX002 (ip), vehicle: Klucel (hydroxypropylcellulose) (HPC) 90 % of control

CCOC1CCN(CCCn2c3ccccc3c3ccc(C(C)=O)cc32)CC1
inactive: [7] 95 % of control | [8] 92 % of control

N#C/C(=C\c1ccccc1)c1cccc(Cl)c1
inactive: endpoint: mean survival time, dose: 100.0 mg/kg/injection, schedule: Q01DX009 (ip), vehicle: other 95 % of control | endpoint: mean survival time, dose: 200.0 mg/kg/injection, schedule: Q01DX009 (ip), vehicle: other 87 % of control

O=S(=O)(NO)c1ccc(Cl)cc1
inactive: endpoint: mean survival time, dose: 50.0 mg/kg/injection, schedule: Q01DX009 (ip), vehicle: saline sonified 98 % of control | endpoint: mean survival time, dose: 100.0 mg/kg/injection, schedule: Q01DX009 (ip), vehicle: saline sonified 91 % of control | [1] 98 % of control | endpoint: mean survival time, dose: 200.0 mg/kg/injection, schedule: Q01DX009 (ip), vehicle: saline sonified 95 % of control | [2] 94 % of control

CC1(C)C(=O)C(C)(C)C1O
inactive: endpoint: mean survival time, dose: 50.0 mg/kg/injection, schedule: Q04DX003 (ip), vehicle: saline 95 % of control | endpoint: mean survival time, dose: 75.0 mg/kg/injection, schedule: Q01DX001 (ip), vehicle: acetone 106 % of control | [7] 97 % of control | [1] 93 % of control | endpoint: mean survival time, dose: 150.0 mg/kg/injection, schedule: Q01DX001 (ip), vehicle: acetone 104 % of control | [8] 111 % of control | [2] 87 % of control | endpoint: mean survival time, dose: 300.0 mg/kg/injection, schedule: Q01DX001 (ip), vehicle: acetone 106 % of control

CCC1(CC)C(=O)NC(=NCCCC(N)C(=O)O)NC1=O (stereo unspecified)
inactive: endpoint: mean survival time, dose: 75.0 mg/kg/injection, schedule: Q01DX001 (ip), vehicle: carboxymethylcellulose (CMC) 106 % of control | endpoint: mean survival time, dose: 150.0 mg/kg/injection, schedule: Q01DX001 (ip), vehicle: carboxymethylcellulose (CMC) 109 % of control

Clc1cccc2c(Cl)nccc12
inactive: [9] 100 % of control | [10] 94 % of control | endpoint: mean survival time, dose: 400.0 mg/kg/injection, schedule: Q04DX003 (ip), vehicle: saline with Tween-80 96 % of control

O=CC(O)C(O)C(OC1OC(CO)C(O)C(O)C1O)C(O)CO (stereo unspecified)
inactive: endpoint: mean survival time, dose: 100.0 mg/kg/injection, schedule: Q04DX002 (ip), vehicle: carboxymethylcellulose (CMC) 93 % of control and 117 % of control | endpoint: mean survival time, dose: 100.0 mg/kg/injection, schedule: Q04DX003 (ip), vehicle: carboxymethylcellulose (CMC) 99 % of control | endpoint: mean survival time, dose: 200.0 mg/kg/injection, schedule: Q04DX002 (ip), vehicle: carboxymethylcellulose (CMC) 93 % of control and 92 % of control | endpoint: mean survival time, dose: 200.0 mg/kg/injection, schedule: Q04DX003 (ip), vehicle: carboxymethylcellulose (CMC) 96 % of control | endpoint: mean survival time, dose: 400.0 mg/kg/injection, schedule: Q04DX002 (ip), vehicle: carboxymethylcellulose (CMC) 100 % of control and 86 % of control | endpoint: mean survival time, dose: 400.0 mg/kg/injection, schedule: Q04DX003 (ip), vehicle: carboxymethylcellulose (CMC) 87 % of control

CCN(CC)CC(Cl)CN(CC)CC
inactive: endpoint: mean survival time, dose: 50.0 mg/kg/injection, schedule: Q01DX009 (ip), vehicle: saline with Tween-80 104 % of control | [4] 87 % of control | [9] 97 % of control | [10] 88 % of control

Reference: PubChem BioAssay AID248 (DTP/NCI, 2004)
